Measurements reported in patent US20200016159A1, “N3-CYCLICALLY SUBSTITUTED THIENOURACILS AND USE THEREOF” (Bayer Aktiengesellschaft, priority 2016, published 2020).

Biological target: T1, human adenosine A2b receptor (Homo sapiens, UniProt P29275)
T1 sequence (P29275 1-332): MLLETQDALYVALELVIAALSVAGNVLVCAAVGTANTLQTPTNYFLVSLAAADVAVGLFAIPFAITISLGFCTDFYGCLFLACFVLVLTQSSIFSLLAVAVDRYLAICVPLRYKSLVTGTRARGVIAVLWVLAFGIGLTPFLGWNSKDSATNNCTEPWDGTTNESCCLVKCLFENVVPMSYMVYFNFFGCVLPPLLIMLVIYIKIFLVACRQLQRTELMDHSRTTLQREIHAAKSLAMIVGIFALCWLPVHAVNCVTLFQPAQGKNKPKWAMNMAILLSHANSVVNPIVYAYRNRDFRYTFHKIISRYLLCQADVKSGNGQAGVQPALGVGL
Experiment: Cellular in vitro reporter gene test for A2b receptor activity (antagonism of NECA)
Format: cell-based
Parameters: expressed in transfected cells; host or cells: CHO-K1 (Chinese hamster ovary) with CRE-luciferase reporter
Settings: recombinant CHO-K1 cells, CRE-luciferase reporter, co-incubation with EC50 concentration of NECA, 3 hours
Outline: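 Antagonism measured as block of NECA-induced, cAMP/CRE-dependent luciferase expression in recombinant A2b CHO-K1 cells. NECA used at the EC50 set in a pre-experiment on each test day; luminescence detected after 3 h. Reported as IC50, partly averaged and rounded to two significant figures.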

Compound	IC50 [nM]
Cc1c(Cn2nc[nH]c2=O)sc2c1c(=O)n(C1CCC1)c(=O)n2CCC(F)(F)F [Example 114, 3-Cyclobutyl-5-methyl-6-[(5-oxo-4,5-dihydro-1H-1,2,4-triazol-1-yl)methyl]-1-(3,3,3-trifluoropropyl)thieno[2,3-d]pyrimidine-2,4(1H,3H)-dione]	1.9
Cc1c(CN2CCNC2=O)sc2c1c(=O)n(C1CC(F)(F)C1)c(=O)n2CCC(F)(F)F [Example 120, 3-(3,3-Difluorocyclobutyl)-5-methyl-6-[(2-oxoimidazolidin-1-yl)methyl]-1-(3,3,3-trifluoropropyl)thieno[2,3-d]pyrimidine-2,4(1H,3H)-dione]	3.2
Cc1c(CN2CCNC2=NC#N)sc2c1c(=O)n(C1CC(F)(F)C1)c(=O)n2CCC(F)(F)F [Example 121, [1-{[3-(3,3-Difluorocyclobutyl)-5-methyl-2,4-dioxo-1-(3,3,3-trifluoropropyl)-1,2,3,4-tetrahydrothieno[2,3-d]pyrimidin-6-yl]methyl}imidazolidin-2-ylidene]cyanamide]	15
Cc1c(CN2CCNC(=O)C2=O)sc2c1c(=O)n(C1CC(F)(F)C1)c(=O)n2CCC(F)(F)F [Example 123, 3-(3,3-Difluorocyclobutyl)-6-[(2,3-dioxopiperazin-1-yl)methyl]-5-methyl-1-(3,3,3-trifluoropropyl)thieno[2,3-d]pyrimidine-2,4(1H,3H)-dione]	10
Cc1c(Cn2nc[nH]c2=O)sc2c1c(=O)n(C1CC(F)(F)C1)c(=O)n2CCC(F)(F)F [Example 124, 3-(3,3-Difluorocyclobutyl)-5-methyl-6-[(5-oxo-4,5-dihydro-H-1,2,4-triazol-1-yl)methyl]-1-(3,3,3-trifluoropropyl)thieno[2,3-d]pyrimidine-2,4(1H,3H)-dione]	26
COCCn1c(=O)n(C2CC(F)(F)C2)c(=O)c2c(C)c(CN3CCNC3=O)sc21 [Example 125, 3-(3,3-Difluorocyclobutyl)-1-(2-methoxyethyl)-5-methyl-6-[(2-oxoimidazolidin-1-yl)methyl]thieno[2,3-d]pyrimidine-2,4(1H,3H)-dione]	33
COCCn1c(=O)n(C2CC(F)(F)C2)c(=O)c2c(C)c(CN3CCNC3=NC(=O)OC)sc21 [Example 127, Methyl [1-{[3-(3,3-difluorocyclobuty)-1-(2-methoxyethyl)-5-methyl-2,4-dioxo-1,2,3,4-tetrahydrothieno[2,3-d]pyrimidin-6-yl]methyl}imidazolidin-2-ylidene]carbamate]	10
Cc1c(CN2CCNC2=O)sc2c1c(=O)n(C1COC1)c(=O)n2CCC(F)(F)F [Example 130, 5-Methyl-3-(oxetan-3-yl)-6-[(2-oxoimidazolidin-1-yl)methyl]-1-(3,3,3-trifluoropropyl)thieno[2,3-d]pyrimidine-2,4(1H,3H)-dione]	14
Cc1c(CN2CCNC2=NC#N)sc2c1c(=O)n(C1COC1)c(=O)n2CCC(F)(F)F [Example 131, [1-{[5-Methyl-3-(oxetan-3-yl)-2,4-dioxo-1-(3,3,3-trifluoropropyl)-1,2,3,4-tetrahydrothieno[2,3-d]pyrimidin-6-yl]methyl}imidazolidin-2-ylidene]cyanamide]	68
COC(=O)N=C1NCCN1Cc1sc2c(c1C)c(=O)n(C1COC1)c(=O)n2CCC(F)(F)F [Example 132, Methyl [1-{[5-methyl-3-(oxetan-3-yl)-2,4-dioxo-1-(3,3,3-trifluoropropyl)-1,2,3,4-tetrahydrothieno[2,3-d]pyrimidin-6-yl]methyl}imidazolidin-2-ylidene]carbamate]	11
Cc1c(CN2CCNC(=O)C2=O)sc2c1c(=O)n(C1COC1)c(=O)n2CCC(F)(F)F [Example 133, 6-[(2,3-Dioxopiperazin-1-yl)methyl]-5-methyl-3-(oxetan-3-yl)-1-(3,3,3-trifluoropropyl)thieno[2,3-d]pyrimidine-2,4(1H,3H)-dione]	430
Cc1c(CN2CCNC2=O)sc2c1c(=O)n(C1(C)CCC1)c(=O)n2CCC(F)(F)F [Example 134, 5-Methyl-3-(1-methylcyclobutyl)-6-[(2-oxoimidazolidin-1-yl)methyl]-1-(3,3,3-trifluoropropyl)thieno[2,3-d]pyrimidine-2,4(1H,3H)-dione]	34
Cc1c(CN2CCNC2=NC#N)sc2c1c(=O)n(C1(C)CCC1)c(=O)n2CCC(F)(F)F [Example 135, [1-{[5-Methyl-3-(1-methylcyclobutyl)-2,4-dioxo-1-(3,3,3-trifluoropropyl)-1,2,3,4-tetrahydrothieno[2,3-d]pyrimidin-6-yl]methyl}imidazolidin-2-ylidene]cyanamide]	48
COC(=O)N=C1NCCN1Cc1sc2c(c1C)c(=O)n(C1(C)CCC1)c(=O)n2CCC(F)(F)F [Example 136, Methyl [1-{[5-methyl-3-(1-methylcyclobutyl)-2,4-dioxo-1-(3,3,3-trifluoropropyl)-1,2,3,4-tetrahydrothieno[2,3-d]pyrimidin-6-yl]methyl}imidazolidin-2-ylidene]carbamate]	19
Cc1c(Cn2nc[nH]c2=O)sc2c1c(=O)n(C1(C)CCC1)c(=O)n2CCC(F)(F)F [Example 138, 5-Methyl-3-(1-methylcyclobutyl)-6-[(5-oxo-4,5-dihydro-1H-1,2,4-triazol-1-yl)methyl]-1-(3,3,3-trifluoropropyl)thieno[2,3-d]pyrimidine-2,4(1H,3H)-dione]	260
COCCn1c(=O)n(C2(C)CCC2)c(=O)c2c(C)c(CN3CCNC3=O)sc21 [Example 139, 1-(2-Methoxyethyl)-5-methyl-3-(1-methylcyclobutyl)-6-[(2-oxoimidazolidin-1-yl)methyl]thieno[2,3-d]pyrimidine-2,4(1H,3H)-dione]	310
COCCn1c(=O)n(C2(C)CCC2)c(=O)c2c(C)c(CN3CCNC3=NC#N)sc21 [Example 140, [1-{[1-(2-Methoxyethyl)-5-methyl-3-(1-methylcyclobutyl)-2,4-dioxo-1,2,3,4-tetrahydrothieno[2,3-d]pyrimidin-6-yl]methyl}imidazolidine-2-ylidene]cyanamide]	230

More lines, in order of falling IC50, values ahead:

IC50 [nM]	Compound
280	COCCn1c(=O)n(C2CC(F)(F)C2)c(=O)c2c(C)c(Cn3nc[nH]c3=O)sc21 [Example 129, 3-(3,3-Difluorocyclobutyl)-1-(2-methoxyethyl)-5-methyl-6-[(5-oxo-4,5-dihydro-H-1,2,4-triazol-1-yl)methyl]thieno[2,3-d]pyrimidine-2,4(1H,3H)-dione]
77	Cc1c(CN2CCNC(=O)C2=O)sc2c1c(=O)n(C1(C)CCC1)c(=O)n2CCC(F)(F)F [Example 137, 6-[(2,3-Dioxopiperazin-1-yl)methyl]-5-methyl-3-(1-methylcyclobutyl)-1-(3,3,3-trifluoropropyl)thieno[2,3-d]pyrimidine-2,4(1H,3H)-dione]
36	COCCn1c(=O)n(C2CC(F)(F)C2)c(=O)c2c(C)c(CN3CCNC(=O)C3=O)sc21 [Example 128, 3-(3,3-Difluorocyclobutyl)-6-[(2,3-dioxopiperazin-1-yl)methyl]-1-(2-methoxyethyl)-5-methylthieno[2,3-d]pyrimidine-2,4(1H,3H)-dione]
14	COCCn1c(=O)n(C2CCC2)c(=O)c2c(C)c(CN3CCNC(=O)C3=O)sc21 [Example 118, 3-Cyclobutyl-6-[(2,3-dioxopiperazin-1-yl)methyl]-1-(2-methoxyethyl)-5-methylthieno[2,3-d]pyrimidine-2,4(1H,3H)-dione]
14	COCCn1c(=O)n(C2CC(F)(F)C2)c(=O)c2c(C)c(CN3CCNC3=NC#N)sc21 [Example 126, [1-{[3-(3,3-Difluorocyclobutyl)-1-(2-methoxyethyl)-5-methyl-2,4-dioxo-1,2,3,4-tetrahydrothieno[2,3-d]pyrimidin-6-yl]methyl}imidazolidin-2-ylidene]cyanamide]
12	COCCn1c(=O)n(C2CCC2)c(=O)c2c(C)c(Cn3nc[nH]c3=O)sc21 [Example 119, 3-Cyclobutyl-1-(2-methoxyethyl)-5-methyl-6-[(5-oxo-4,5-dihydro-H-1,2,4-triazol-1-yl)methyl]thieno[2,3-d]pyrimidine-2,4(1H,3H)-dione]
4.3	COCCn1c(=O)n(C2CCC2)c(=O)c2c(C)c(CN3CCNC3=O)sc21 [Example 115, 3-Cyclobutyl-1-(2-methoxyethyl)-5-methyl-6-[(2-oxoimidazolidin-1-yl)methyl]thieno[2,3-d]pyrimidine-2,4(1H,3H)-dione]
4.2	COC(=O)N=C1NCCN1Cc1sc2c(c1C)c(=O)n(C1CC(F)(F)C1)c(=O)n2CCC(F)(F)F [Example 122, Methyl [1-{[3-(3,3-difluorocyclobutyl)-5-methyl-2,4-dioxo-1-(3,3,3-trifluoropropyl)-1,2,3,4-tetrahydrothieno[2,3-d]pyrimidin-6-yl]methyl}imidazolidin-2-ylidene]carbamate]
4	COCCn1c(=O)n(C2CCC2)c(=O)c2c(C)c(CN3CCNC3=NC#N)sc21 [Example 116, [1-{[3-Cyclobutyl-1-(2-methoxyethyl)-5-methyl-2,4-dioxo-1,2,3,4-tetrahydrothieno[2,3-d]pyrimidin-6-yl]methyl}imidazolidin-2-ylidene]cyanamide]
1.3	COCCn1c(=O)n(C2CCC2)c(=O)c2c(C)c(CN3CCNC3=NC(=O)OC)sc21 [Example 117, Methyl [1-{[3-cyclobutyl-1-(2-methoxyethyl)-5-methyl-2,4-dioxo-1,2,3,4-tetrahydrothieno[2,3-d]pyrimidin-6-yl]methyl}imidazolidin-2-ylidene]carbamate]
